# Measured values as given in ChEMBL document CHEMBL5465560, “Selectivity Literature for EUbOPEN Chemogenomic Library” (2024).
# Assays:
# [1] = target: Tyrosine-protein kinase Fyn (Homo sapiens) (UniProt P06241); experiment: Selectivity interaction (Kinase screening (Upstate/Millipore)) EUB0000604a FYN
# [2] = target: T1, Serine/threonine-protein kinase RIO3 (Homo sapiens) (UniProt O14730); experiment: Selectivity interaction (KinomeScan (DiscoverX)) EUB0000695a RIOK3; settings: at 100 nM
# T1 sequence (whole entry): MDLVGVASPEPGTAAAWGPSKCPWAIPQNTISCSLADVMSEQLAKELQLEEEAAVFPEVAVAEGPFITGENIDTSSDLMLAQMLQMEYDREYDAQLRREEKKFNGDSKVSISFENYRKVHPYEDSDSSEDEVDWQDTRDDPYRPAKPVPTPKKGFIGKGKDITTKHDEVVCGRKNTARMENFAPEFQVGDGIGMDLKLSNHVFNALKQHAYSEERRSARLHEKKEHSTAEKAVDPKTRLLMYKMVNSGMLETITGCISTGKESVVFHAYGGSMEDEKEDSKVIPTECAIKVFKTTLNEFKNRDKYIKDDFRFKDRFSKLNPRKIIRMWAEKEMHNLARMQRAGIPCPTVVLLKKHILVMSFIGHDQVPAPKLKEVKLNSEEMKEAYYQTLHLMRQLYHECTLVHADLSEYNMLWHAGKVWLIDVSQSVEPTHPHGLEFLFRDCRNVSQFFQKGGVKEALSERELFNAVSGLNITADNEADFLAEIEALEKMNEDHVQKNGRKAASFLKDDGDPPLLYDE
# [3] = target: T2, Phosphatidylinositol 3-kinase C2 domain-containing subunit gamma (Homo sapiens) (UniProt O75747); experiment: Selectivity interaction (KinomeScan (DiscoverX)) EUB0000655a PIK3C2G; settings: at 10 µM
# T2 sequence (whole entry): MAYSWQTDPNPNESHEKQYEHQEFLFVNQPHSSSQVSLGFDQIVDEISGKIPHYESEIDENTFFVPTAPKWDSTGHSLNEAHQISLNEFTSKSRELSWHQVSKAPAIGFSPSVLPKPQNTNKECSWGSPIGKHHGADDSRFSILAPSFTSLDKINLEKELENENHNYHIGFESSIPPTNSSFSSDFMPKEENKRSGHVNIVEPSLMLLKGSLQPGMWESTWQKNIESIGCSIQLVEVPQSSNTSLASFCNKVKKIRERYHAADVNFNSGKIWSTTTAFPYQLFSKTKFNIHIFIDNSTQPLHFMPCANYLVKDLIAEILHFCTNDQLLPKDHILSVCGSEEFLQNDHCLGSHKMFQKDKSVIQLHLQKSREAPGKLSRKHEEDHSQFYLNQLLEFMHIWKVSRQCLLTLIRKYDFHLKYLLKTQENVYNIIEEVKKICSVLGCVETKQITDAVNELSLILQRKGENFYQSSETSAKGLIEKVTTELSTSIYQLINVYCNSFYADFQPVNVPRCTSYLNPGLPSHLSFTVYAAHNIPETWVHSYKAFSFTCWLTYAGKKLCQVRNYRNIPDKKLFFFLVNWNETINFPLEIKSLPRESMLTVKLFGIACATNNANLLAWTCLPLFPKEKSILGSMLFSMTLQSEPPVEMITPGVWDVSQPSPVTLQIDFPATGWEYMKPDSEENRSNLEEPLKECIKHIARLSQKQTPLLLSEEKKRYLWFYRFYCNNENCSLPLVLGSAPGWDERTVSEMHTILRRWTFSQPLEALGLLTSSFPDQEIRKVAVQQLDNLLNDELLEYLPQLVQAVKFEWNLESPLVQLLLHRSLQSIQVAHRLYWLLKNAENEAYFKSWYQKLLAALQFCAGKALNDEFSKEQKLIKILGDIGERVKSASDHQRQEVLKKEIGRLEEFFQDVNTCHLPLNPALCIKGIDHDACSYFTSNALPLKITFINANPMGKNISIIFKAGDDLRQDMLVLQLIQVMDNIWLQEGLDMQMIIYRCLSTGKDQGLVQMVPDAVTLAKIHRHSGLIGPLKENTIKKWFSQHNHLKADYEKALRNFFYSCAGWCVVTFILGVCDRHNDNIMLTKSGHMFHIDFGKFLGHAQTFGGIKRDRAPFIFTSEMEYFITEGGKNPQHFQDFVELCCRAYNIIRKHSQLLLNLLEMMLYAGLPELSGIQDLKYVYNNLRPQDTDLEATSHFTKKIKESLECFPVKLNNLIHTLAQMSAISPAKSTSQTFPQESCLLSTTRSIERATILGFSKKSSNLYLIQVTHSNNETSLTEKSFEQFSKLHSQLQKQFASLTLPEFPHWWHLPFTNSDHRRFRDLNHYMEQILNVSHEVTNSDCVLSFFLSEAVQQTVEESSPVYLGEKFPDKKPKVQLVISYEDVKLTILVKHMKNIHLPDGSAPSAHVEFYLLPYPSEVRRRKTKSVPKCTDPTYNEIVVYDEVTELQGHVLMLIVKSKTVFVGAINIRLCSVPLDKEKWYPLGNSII
# [4] = target: T3, NUAK family SNF1-like kinase 1 (Homo sapiens) (UniProt O60285); experiment: Selectivity interaction (KinomeScan (DiscoverX)) EUB0000618a NUAK1; settings: at 10 µM
# T3 sequence (whole entry): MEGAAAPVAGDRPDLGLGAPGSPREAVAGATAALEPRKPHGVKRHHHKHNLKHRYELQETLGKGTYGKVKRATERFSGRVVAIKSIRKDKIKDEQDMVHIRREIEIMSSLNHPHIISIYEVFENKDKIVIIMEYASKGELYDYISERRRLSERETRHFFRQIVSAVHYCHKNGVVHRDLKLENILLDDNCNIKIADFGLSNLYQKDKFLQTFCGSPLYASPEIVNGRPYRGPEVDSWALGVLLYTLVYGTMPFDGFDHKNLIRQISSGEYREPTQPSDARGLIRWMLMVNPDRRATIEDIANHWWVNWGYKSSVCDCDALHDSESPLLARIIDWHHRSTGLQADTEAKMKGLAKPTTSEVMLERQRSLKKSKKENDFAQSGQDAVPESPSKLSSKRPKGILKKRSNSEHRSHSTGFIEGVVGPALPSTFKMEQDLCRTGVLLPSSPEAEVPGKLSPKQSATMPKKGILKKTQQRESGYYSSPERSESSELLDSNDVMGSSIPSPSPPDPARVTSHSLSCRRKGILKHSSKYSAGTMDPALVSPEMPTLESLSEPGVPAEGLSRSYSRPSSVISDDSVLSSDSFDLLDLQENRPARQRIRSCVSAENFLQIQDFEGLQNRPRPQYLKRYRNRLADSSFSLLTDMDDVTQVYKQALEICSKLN
# [5] = target: Serine/threonine-protein kinase B-raf (Homo sapiens) (UniProt P15056); experiment: Selectivity interaction (SelectScreen profiling (Invitrogen)) EUB0000607a BRAF; settings: at 2 µM
# Chain of Serine/threonine-protein kinase B-raf (Homo sapiens) (P15056 whole entry): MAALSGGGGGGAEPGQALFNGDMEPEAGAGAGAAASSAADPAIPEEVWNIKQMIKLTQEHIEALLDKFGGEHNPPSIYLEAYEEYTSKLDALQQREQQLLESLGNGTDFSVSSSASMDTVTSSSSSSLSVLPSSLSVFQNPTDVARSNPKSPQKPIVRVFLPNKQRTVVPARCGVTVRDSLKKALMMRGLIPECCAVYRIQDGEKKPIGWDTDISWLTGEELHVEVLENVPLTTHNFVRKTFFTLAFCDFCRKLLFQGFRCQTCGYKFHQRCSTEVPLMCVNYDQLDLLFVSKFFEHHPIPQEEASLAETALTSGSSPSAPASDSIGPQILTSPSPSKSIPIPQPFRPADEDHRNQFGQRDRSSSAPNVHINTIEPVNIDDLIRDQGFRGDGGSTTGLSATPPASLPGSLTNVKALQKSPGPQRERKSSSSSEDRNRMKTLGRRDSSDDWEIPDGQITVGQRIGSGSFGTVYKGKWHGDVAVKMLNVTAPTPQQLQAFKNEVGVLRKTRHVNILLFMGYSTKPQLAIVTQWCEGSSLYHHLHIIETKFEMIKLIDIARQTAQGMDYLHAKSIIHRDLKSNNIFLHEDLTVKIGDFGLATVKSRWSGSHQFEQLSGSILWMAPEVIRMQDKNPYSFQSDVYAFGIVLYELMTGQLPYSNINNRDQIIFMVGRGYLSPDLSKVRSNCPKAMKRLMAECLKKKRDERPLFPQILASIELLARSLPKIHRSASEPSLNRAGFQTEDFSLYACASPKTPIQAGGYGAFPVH
# Chain of Tyrosine-protein kinase Fyn (Homo sapiens) (P06241 2-537 limits assumed): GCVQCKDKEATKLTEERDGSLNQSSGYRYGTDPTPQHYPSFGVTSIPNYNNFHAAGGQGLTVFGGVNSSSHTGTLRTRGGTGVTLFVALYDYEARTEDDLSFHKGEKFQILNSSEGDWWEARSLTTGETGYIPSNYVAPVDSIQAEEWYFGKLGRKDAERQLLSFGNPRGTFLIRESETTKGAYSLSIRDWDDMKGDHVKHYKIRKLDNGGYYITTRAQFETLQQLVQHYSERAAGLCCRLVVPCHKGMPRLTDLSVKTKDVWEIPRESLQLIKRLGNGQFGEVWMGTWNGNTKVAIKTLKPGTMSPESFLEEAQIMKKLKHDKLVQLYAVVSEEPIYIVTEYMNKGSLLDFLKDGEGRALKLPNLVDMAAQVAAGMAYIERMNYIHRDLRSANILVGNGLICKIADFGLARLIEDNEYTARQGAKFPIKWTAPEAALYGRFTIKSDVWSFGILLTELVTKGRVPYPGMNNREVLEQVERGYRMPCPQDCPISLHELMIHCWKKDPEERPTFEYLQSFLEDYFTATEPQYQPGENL
smiles,measurement,setting,value
Cc1cnc(Nc2ccc(F)cc2Cl)nc1-c1c[nH]c(C(=O)N[C@H](CO)c2cccc(Cl)c2)c1,% of inhibition,[1],11%
Cc1cc(F)c(C(=O)Nc2cccc(-c3nncn3C(C)C)n2)cc1-n1cnc(C2CC2)c1,% of control,[2],83%
CN(C)CCOc1ccc(-c2nc(-c3ccncc3)c(-c3ccc4c(c3)CC/C4=N\O)[nH]2)cc1,% of control,[3],55%
O[C@H]1CC[C@H](Nc2ncc3nc(Nc4c(F)cc(F)cc4F)n([C@H]4CCOC4)c3n2)CC1,% of control,[4],97%
CNC(=O)Nc1ccc(-c2nc(N3CC4CCC(C3)O4)c3cnn(C4CCC5(CC4)OCCO5)c3n2)cc1,% of inhibition,[5],-16%
